Laboratory results reported in patent US7999132B2, “Anthranilic acid derivative or salt thereof” (Toyama Chemical Co., Ltd., priority 2004, dated 2011).
Structures can show the parent of a compound that is named as a salt.

How the values were obtained:
[1] = tested on: DBA/1J mice; experiment: Type II Collagen-induced Arthritis in Mice; format: in vivo; conditions: 30 mg/kg orally once a day from the 21st day to the 35th day, male DBA/1J mice
Protocol: Type II Collagen-induced Arthritis in Mice
Eight-week old male DBA/1J mice were used (Charles River Laboratories Japan Inc.). 4 mg/mL bovine type II collagen (Collagen Gijutsu Kenshukai) dissolved in 0.01 mol/L of acetic acid aqueous solution and an equal amount of Freund's complete adjuvant (Chondorex) containing 1 mg/mL of killed tuberculosis bacillus were added to prepare an emulsion, and 0.1 mL thereof was intradermally injected at the base of tail. Similar treatment was conducted on the 21st day to cause arthritis. The test compound was suspended in 0.5% methylcellulose aqueous solution, and 30 mg/kg was orally administered once a day from the 21st day to the 35th day. In the control group, 0.5% methylcellulose aqueous solution was administered in the same manner. The severity of arthritis was estimated by scoring at zero point for an animal without change; one point for an animal with swelling at the one or two finger joint or light swelling only at the carpal or tarsal joint; two points for an animal with severe swelling at the carpal or tarsal joint or with swelling at three or more finger joints; three points for an animal with severe swelling along the whole foreleg or hindleg and thus counting 12 points at the maximum for the four limbs as arthritis score. […] The inhibitory rate was determined by the following expression. […]

[2] = tested on: MMP-13; experiment: MMP-13 Production Inhibition Test; format: cell-based, human; conditions: Homo sapiens; 30 μmol/L; SW1353 cells stimulated with IL-1β 10 ng/mL; MMP-13 in culture supernatant by ELISA 16 hours after stimulation; read-out: Inhibition rate (%) at 30 μmol/L
Protocol: MMP-13 Production Inhibition Test
6.8×10^3 human cartilage derived cell line SW1353 cells were suspended in 100 μL of Dulbecco modified Eagle's medium supplemented with 10% fetal calf serum, plated on 96-well plates and cultured for 3 days. After the culture medium was changed to Dulbecco modified Eagle's medium containing 0.2% lactalbumin hydrolysate and the cells were cultured for 6 hours, […] were added and then IL-1β was added to obtain the final concentration of 10 ng/mL 1 hour later. 16 hours after the stimulation, supernatant was collected and the amount of MMP-13 in the culture supernatant was determined with an ELISA kit (Amersham). The inhibition rate was calculated from the amount of MMP-13 in the presence of a test compound assuming that the amount of MMP-13 was 100% in the absence of the test compound.

Row | Compound | inhibitory action on bone destruction (bone destruction score) ([1]; X-ray of the four limbs on the 36th day) | inhibitory action on arthritis (arthritis score) [1] | inhibition at 30 µM [2] [%]
1 | O=C(Nc1cc(CCc2ccccc2)ccc1C(=O)O)c1ccccc1 [Example 25, 2-(benzamido)-4-phenethylbenzoic acid] | exhibited inhibitory action | exhibited inhibitory action | 86
2 | O=C(Nc1cc(Oc2ccccc2)ccc1C(=O)O)c1ccc(N2CCOCC2)nc1 [Example 330, 2-(6-Morpholinopyridine-3-carboxamido)-4-phenoxybenzoic acid] | – | – | 68
3 | O=C(Nc1cc(-c2ccccc2)ccc1C(=O)O)c1cc(-c2ccccc2)ncn1 [Example 349, 4-Phenyl-2-(6-phenylpyrimidine-4-carboxamido)benzoic acid] | – | – | 95
4 | O=C(/C=C/c1cccc(Cl)c1)Nc1cc(-c2ccccc2)ccc1C(=O)O [Example 358, 2-((E)-3-(3-Chlorophenyl)acrylamido)-4-phenylbenzoic acid] | – | – | 99
5 | O=C(/C=C/c1ccc(Cl)c(Cl)c1)Nc1cc(Oc2ccccc2)ccc1C(=O)O [Example 382, 2-((E)-3-(3,4-Dichlorophenyl)acrylamido)-4-phenoxybenzoic acid] | – | – | 98
6 | O=C(Nc1cc(-c2ccccc2)ccc1C(=O)O)c1ccc(O)cc1 [Example 399, 2-(4-Hydroxybenzamido)-4-phenylbenzoic acid] | – | – | 79
7 | COc1ccc(-c2ccc(C(=O)O)c(NC(=O)c3ccccc3)c2)cc1OC [Example 411, 2-(Benzamido)-4-(3,4-dimethoxyphenyl)benzoic acid] | – | – | 81
8 | O=C(Nc1cc(-n2cnc3ccccc32)ccc1C(=O)O)c1ccccc1 [Example 415, 2-(benzamido)-4-(1H-benzimidazol-1-yl)benzoic acid hydrochloride] | – | – | 97
9 | COc1ccc(-c2ccc(C(=O)O)c(NC(=O)c3ccccc3)c2)cc1Cl [Example 423, 2-(Benzamido)-4-(3-chloro-4-methoxyphenyl)benzoic acid] | – | – | 98
10 | O=C(Nc1cc(-c2cc(Cl)ccc2Cl)ccc1C(=O)O)c1ccccc1 [Example 425, 2-(Benzamido)-4-(2,5-dichlorophenyl)benzoic acid] | – | – | 99
11 | Cc1ccc(-c2ccc(C(=O)O)c(NC(=O)c3ccccc3)c2)cc1Cl [Example 426, 2-(benzamido)-4-(3-chloro-4-methylphenyl)benzoic acid] | – | – | 98
12 | O=C(Nc1cc(CCc2ccccc2)ccc1C(=O)O)c1ccc(Cl)c(Cl)c1 [Example 431, 2-(3,4-Dichlorobenzamido)-4-phenethylbenzoic acid] | – | – | 98
13 | O=C(Nc1cc(CCc2ccccc2)ccc1C(=O)O)c1ccc(F)c(F)c1 [Example 433, 2-(3,4-Difluorobenzamido)-4-phenethylbenzoic acid] | – | – | 98
14 | O=C(Nc1cc(Oc2ccccc2)ccc1C(=O)O)c1ccc(Cl)c(Cl)c1 [Example 442, 2-(3,4-Dichlorobenzamido)-4-phenoxybenzoic acid] | – | – | 99
15 | O=C(Nc1cc(-c2ccccc2)ccc1C(=O)O)c1ccc(F)c(F)c1 [Example 450, 2-(3,4-Difluorobenzamido)-4-phenylbenzoic acid] | – | – | 98
16 | O=C(CCCc1ccccc1)Nc1cc(Oc2ccccc2)ccc1C(=O)O [Example 467, 4-phenoxy-2-(4-phenylbutanamido)benzoic acid] | – | – | 90

Row | Compound | inhibitory action on bone destruction (bone destruction score) ([1]; X-ray of the four limbs on the 36th day) | inhibitory action on arthritis (arthritis score) [1] | inhibition at 30 µM [2] [%]
17 | O=C(Nc1cc(Oc2ccccc2)ccc1C(=O)O)c1ccc(-n2cccc2)cc1 [Example 495, 4-phenoxy-2-(4-(1H-pyrrol-1-yl)benzamido)benzoic acid] | – | – | 99
18 | O=C(Nc1cc(Oc2ccccc2)ccc1C(=O)O)c1ccc(-n2cccc2)nc1 [Example 499, 4-Phenoxy-2-(6-(1H-pyrrol-1-yl)pyridine-3-carboxamido)benzoic acid] | – | – | 99
19 | O=C(Nc1cc(Oc2ccccc2)ccc1C(=O)O)c1cccc(-c2ccccc2)c1 [Example 503, 2-(Biphenyl-3-carboxamido)-4-phenoxybenzoic acid] | – | – | 99
20 | CC(=O)c1cccc(C(=O)Nc2cc(Oc3ccccc3)ccc2C(=O)O)c1 [Example 505, 2-(3-Acetylbenzamido)-4-phenoxybenzoic acid] | – | – | 82
21 | O=C(Nc1cc(-c2ccccc2)ccc1C(=O)O)c1ccc(-n2cccc2)nc1 [Example 509, 4-Phenyl-2-(6-(1H-pyrrol-1-yl)pyridine-3-carboxamido) benzoic acid] | – | – | 77
22 | O=C(Nc1cc(-c2ccccc2)ccc1C(=O)O)c1cccc(-c2ccccc2)c1 [Example 512, 2-(Biphenyl-3-carboxamido)-4-phenylbenzoic acid] | – | – | 99
23 | CC(=O)c1cccc(C(=O)Nc2cc(-c3ccccc3)ccc2C(=O)O)c1 [Example 514, 2-(3-Acetylbenzamido)-4-phenylbenzoic acid] | – | – | 91
24 | O=C(Nc1cc(CCc2ccccc2)ccc1C(=O)O)c1ccc(N2CCCCC2)nc1 [Example 525, 4-phenethyl-2-(6-(piperidin-1-yl)pyridine-3-carboxamido)benzoic acid] | – | – | 87
25 | O=C(Nc1cc(Oc2cc(F)cc(F)c2)ccc1C(=O)O)c1ccccc1 [Example 539, 2-(benzamido)-4-(3,5-difluorophenoxy)benzoic acid] | – | – | 97
26 | Cc1cccc(Oc2ccc(C(=O)O)c(NC(=O)c3ccccc3)c2)c1C [Example 541, 2-(Benzamido)-4-(2,3-dimethylphenoxy)benzoic acid] | – | – | 97
27 | COc1cccc(Oc2ccc(C(=O)O)c(NC(=O)c3ccccc3)c2)c1 [Example 543, 2-(Benzamido)-4-(3-methoxyphenoxy)benzoic acid] | – | – | 85
28 | O=C(Nc1cc(Oc2cccc(Cl)c2)ccc1C(=O)O)c1ccccc1 [Example 551, 2-(benzamido)-4-(3-chlorophenoxy)benzoic acid] | – | – | 86
29 | O=C(Nc1cc(Oc2ccc(F)cc2)ccc1C(=O)O)c1ccccc1 [Example 560, 2-(Benzamido)-4-(4-fluorophenoxy)benzoic acid] | – | – | 85
30 | Cc1cccc(C)c1Oc1ccc(C(=O)O)c(NC(=O)c2ccccc2)c1 [Example 564, 2-(Benzamido)-4-(2,6-dimethylphenoxy)benzoic acid] | – | – | 97
31 | O=C(Nc1cc(Oc2ccc(C(F)(F)F)cc2)ccc1C(=O)O)c1ccccc1 [Example 570, 2-(Benzamido)-4-(4-(trifluoromethyl)phenoxy)benzoic acid] | – | – | 98
